Tests used:
[1] = test system: A549 (lung adenocarcinoma); assay: Cytotoxic activity assay (MTT); format: cell-based, human; settings: for IC50: Homo sapiens, A549, 48 h exposure, MTT, read-out: Cell lines, IC50 (μM) A549; for Selectivity Index (SI) values A549: SI = IC50 normal cell (MRC-5)/ IC50 cancer cell
Source text: (§1) The synthetic compounds were screened for their cytotoxic activity using standard MTT or XTT methods[30] against a panel of nine human cancer cell lines and one normal cell line, including MDA-MB-231 (triple-negative breast cancer), T-47D (hormone-dependent breast cancer), HepG2 (hepatocellular carcinoma), A549 (lung adenocarcinoma), H69AR (multidrug-resistant small cell lung carcinoma), HuCCA-1 (cholangiocarcinoma derived from a patient), HeLa (cervical carcinoma), and two leukemia cell lines, HL-60 (acute promyelocytic leukemia) and MOLT-3 (T cell acute lymphoblastic leukemia). MRC-5 normal embryonic lung fibroblast cell line was used to represent normal cells. Chemotherapeutic drugs, doxorubicin and etoposide, were used as positive controls.
(§2) The cells were seeded into 96-well plates (100 µL for adherent cells and 75 µL for suspended cells) at a density of 5000–20,000 cells per well, depending on their growth rates. Adherent and suspended cells were then allowed to grow at 37 °C with 95% humidity and 5% CO2 for 24 h and 30 min, respectively. The cytotoxicity assay was initiated by adding an equal volume of cell culture medium containing tested compound at predetermined concentrations. Following 48 h of exposure, cell viability was determined using MTT assay for adherent cells[51],[52]or XTT assay for suspeended cells. Briefly, for adherent cells, 100 µL of the MTT reagent was added to each well, and the microtiter plates were further incubated for 2.5–4 h. The medium was subsequently replaced with 100 µL of DMSO to dissolve the purple formazan before the absorbance at 550 nm was measured using a microplate reader (a SpectraMax Plus 384) with a reference wavelength of 650 nm. For suspended cells, 75 µL of the XTT reagent was added to each well, and the cells were further incubated for 4 h. Afterwards, the absorbance of orange formazan at 492 nm was measured with a reference wavelength of 690 nm using a microplate reader.

[2] = test system: H69AR (multidrug-resistant small cell lung carcinoma); assay: Cytotoxic activity assay (MTT); format: cell-based, human; settings: for IC50: Homo sapiens, H69AR, 48 h exposure, MTT, read-out: Cell lines, IC50 (μM) H69AR; for Selectivity Index (SI) values H69AR: SI = IC50 normal cell (MRC-5)/ IC50 cancer cell
Source text: as §1, §2

[3] = test system: HeLa (cervical carcinoma); assay: Cytotoxic activity assay (MTT); format: cell-based, human; settings: for IC50: Homo sapiens, 48 h exposure, MTT, read-out: Cell lines, IC50 (μM) HeLa; for Selectivity Index (SI) values HeLa: SI = IC50 normal cell (MRC-5)/ IC50 cancer cell
Source text: as §1, §2

[4] = test system: HepG2 (hepatocellular carcinoma); assay: Cytotoxic activity assay (MTT); format: cell-based, human; settings: for IC50: Homo sapiens, HepG2, 48 h exposure, MTT, read-out: Cell lines, IC50 (μM) HepG2; for Selectivity Index (SI) values HepG2: SI = IC50 normal cell (MRC-5)/ IC50 cancer cell
Source text: as §1, §2

[5] = test system: HuCCA-1 (cholangiocarcinoma derived from a patient); assay: Cytotoxic activity assay (MTT); format: cell-based, human; settings: for IC50: Homo sapiens, HuCC-A1, 48 h exposure, MTT, read-out: Cell lines, IC50 (μM) HuCCA-1; for Selectivity Index (SI) values HuCCA-1: SI = IC50 normal cell (MRC-5)/ IC50 cancer cell
Source text: as §1, §2

[6] = test system: MDA-MB-231 (triple-negative breast cancer); assay: Cytotoxic activity assay (MTT); format: cell-based, human; settings: for IC50: Homo sapiens, MDA-MB-231, 48 h exposure, MTT, read-out: Cell lines, IC50 (μM) MDA-MB-231; for Selectivity Index (SI) values MDA-MB-231: SI = IC50 normal cell (MRC-5)/ IC50 cancer cell
Source text: as §1, §2

[7] = test system: T-47D (hormone-dependent breast cancer); assay: Cytotoxic activity assay (MTT); format: cell-based, human; settings: for IC50: Homo sapiens, T47D, 48 h exposure, MTT, read-out: Cell lines, IC50 (μM) T47-D; for Selectivity Index (SI) values T47-D: SI = IC50 normal cell (MRC-5)/ IC50 cancer cell
Source text: as §1, §2

[8] = test system: HL-60 (acute promyelocytic leukemia); assay: Cytotoxic activity assay (XTT); format: cell-based, human; settings: for IC50: Homo sapiens, HL-60, 48 h exposure, XTT, read-out: Cell lines, IC50 (μM) HL-60; for Selectivity Index (SI) values HL-60: SI = IC50 normal cell (MRC-5)/ IC50 cancer cell
Source text: as §1, §2

[9] = test system: MOLT-3 (T cell acute lymphoblastic leukemia); assay: Cytotoxic activity assay (XTT); format: cell-based, human; settings: for IC50: Homo sapiens, MOLT-3, 48 h exposure, XTT, read-out: Cell lines, IC50 (μM) MOLT-3; for Selectivity Index (SI) values MOLT-3: SI = IC50 normal cell (MRC-5)/ IC50 cancer cell
Source text: as §1, §2

[10] = test system: MRC-5 normal embryonic lung fibroblast cell line; assay: Cytotoxic activity assay (MTT), normal cells; format: cell-based; settings: Homo sapiens, MRC5, 48 h exposure, read-out: Cell lines, IC50 (μM) MRC-5
Source text: as §1, §2

| Structure (SMILES) | IC50 [1] [µM] | Selectivity Index (SI) values A549 [1] | IC50 [2] [µM] | Selectivity Index (SI) values H69AR [2] | IC50 [3] [µM] | Selectivity Index (SI) values HeLa [3] | IC50 [4] [µM] | Selectivity Index (SI) values HepG2 [4] | IC50 [5] [µM] | Selectivity Index (SI) values HuCCA-1 [5] | IC50 [6] [µM] | Selectivity Index (SI) values MDA-MB-231 [6] | IC50 [7] [µM] | Selectivity Index (SI) values T47-D [7] | IC50 [8] [µM] | Selectivity Index (SI) values HL-60 [8] | IC50 [9] [µM] | Selectivity Index (SI) values MOLT-3 [9] | IC50 [10] [µM] |
| --- | --- | --- | --- | --- | --- | --- | --- | --- | --- | --- | --- | --- | --- | --- | --- | --- | --- | --- | --- |
| C=C1CCC2C(C)(C)CCCC2(C)C1CCC(C)=CC(=O)O (stereo not shown) [Compound 1, anticopalic acid] | 159.1 ± 0.78 | 1.0 | > 120 | 1.0 | 145.2 ± 0.31 | 1.1 | > 120 | 1.0 | 157.1 ± 0.51 | 1.0 | > 120 | 1.0 | > 120 | 1.0 | 103 ± 10.7 | 1.6 | 66.02 ± 0.12 | 2.5 | > 120 |
| C=C1CCC2C(C)(C)CCCC2(C)C1CCC(C)=CCO (stereo not shown) [Compound 2, anticopalol] | 60.52 ± 0.22 | 0.9 | 111.9 ± 0.71 | 0.5 | 37.49 ± 0.04 | 1.4 | 52.33 ± 0.34 | 1.0 | 51.5 ± 0.24 | 1.1 | 31.77 ± 0.13 | 1.7 | 52.33 ± 0.34 | 1.0 | 27.7 ± 0.31 | 2.0 | 32.2 ± 1.44 | 1.7 | 54.15 ± 0.31 |
| C=C1CCC2C(C)(C)CCC[C@]2(C)[C@H]1CC/C(C)=C/C=O (stereo partly drawn) [Compound 3, (E)-3-methyl-5-((1S,8aS)-5,5,8a-trimethyl-2-methylenedecahydronaphthalen-1-yl)pent-2-enal] | 142 ± 2.69 | 0.9 | > 120 | 0.7 | 77.4 ± 1.47 | 1.6 | 122.2 ± 1.03 | 1.0 | 131.4 ± 1.14 | 1.0 | 64.1 ± 1.8 | 2.0 | 93.9 ± 1.54 | 1.3 | 56.4 ± 1.37 | 2.2 | 37.7 ± 3.2 | 3.3 | 125.8 ± 0.46 |
| C=C1CC[C@H]2C(C)(C)CCC[C@]2(C)[C@H]1CC/C(C)=C/C(=O)NC [Compound 4a, (E)-N,3-Dimethyl-5-((1S,4aS,8aS)-5,5,8a-trimethyl-2-methylenedecahydro-naphthalen-1-yl)pent-2-enamide] | 65.1 ± 3.57 | 0.9 | 122 ± 3.48 | 0.5 | 47.7 ± 1.08 | 1.2 | 73.4 ± 2.06 | 0.8 | 62.9 ± 1.36 | 0.9 | 29.9 ± 0.71 | 1.9 | 73.4 ± 2.06 | 0.8 | 24.7 ± 1.41 | 2.3 | 25.5 ± 0.7 | 2.2 | 55.9 ± 0.19 |
| C=CCNC(=O)/C=C(\C)CC[C@H]1C(=C)CC[C@H]2C(C)(C)CCC[C@]12C [Compound 4b, (E)-N-Allyl-3-methyl-5-((1S,4aS,8aS)-5,5,8a-trimethyl-2-methylenedeca-hydronaphthalen-1-yl)pent-2-enamide] | > 120 | 1.0 | > 120 | 1.0 | 79.61 ± 0.49 | 1.8 | 107 ± 1.28 | 1.4 | > 120 | 1.0 | 114.3 ± 0.72 | 1.3 | > 120 | 1.0 | 22.7 ± 0.84 | 6.4 | 25.4 ± 0.51 | 5.7 | > 120 |
| C#CCNC(=O)/C=C(\C)CC[C@H]1C(=C)CC[C@H]2C(C)(C)CCC[C@]12C [Compound 4c, (E)-3-Methyl-N-(prop-2-yn-1-yl)-5-((1S,4aS,8aS)-5,5,8a-trimethyl-2-methylenedecahydronaphthalen-1-yl)pent-2-enamide] | 54.1 ± 1.17 | 0.9 | 113 ± 1.35 | 0.4 | 28.1 ± 0.93 | 1.7 | 85.06 ± 0.61 | 0.6 | 52.7 ± 0.11 | 0.9 | 27.5 ± 0.62 | 1.8 | 76.6 ± 4.68 | 0.6 | 24.13 ± 0.08 | 2.0 | 23.2 ± 1.03 | 2.1 | 48.1 ± 0.62 |
| C=C1CC[C@H]2C(C)(C)CCC[C@]2(C)[C@H]1CC/C(C)=C/C(=O)NCCCCCCCC [Compound 4d, (E)-3-Methyl-N-octyl-5-((1S,4aS,8aS)-5,5,8a-trimethyl-2-methylenedecahydronaphthalen-1-yl)pent-2-enamide] | > 120 | 1.0 | > 120 | 1.0 | > 120 | 1.0 | > 120 | 1.0 | > 120 | 1.0 | > 120 | 1.0 | > 120 | 1.0 | > 120 | 1.0 | > 120 | 1.0 | > 120 |
| C=C1CC[C@H]2C(C)(C)CCC[C@]2(C)[C@H]1CC/C(C)=C/C(=O)NCC(=O)O [Compound 4s, ((E)-3-methyl-5-((1S,4aS,8aS)-5,5,8a-trimethyl-2-methylenedecahydro-naphthalen-1-yl)pent-2-enoyl)glycine] | > 120 | 1.0 | > 120 | 1.0 | > 120 | 1.0 | – | – | > 120 | 1.0 | > 120 | 1.0 | > 120 | 1.0 | 75.1 ± 3.24 | 1.8 | 84.14 ± 0.09 | 1.6 | > 120 |
| COc1cccc2c1C(=O)c1c(O)c3c(c(O)c1C2=O)C[C@@](O)(C(=O)CO)C[C@@H]3O[C@H]1C[C@H](N)[C@H](O)[C@H](C)O1 [DOX, doxorubicin, reference compound] | 0.38 ± 0.03 | 2.0 | 38.08 ± 0.29 | – | 0.48 ± 0.01 | 1.6 | 0.4 ± 0.02 | 1.9 | 0.78 ± 0.06 | 1.0 | 2.7 ± 0.16 | 0.3 | 0.47 ± 0.03 | 1.6 | – | – | – | – | 0.76 ± 0.05 |
| COc1cc([C@@H]2c3cc4c(cc3[C@@H](O[C@@H]3O[C@@H]5CO[C@@H](C)O[C@H]5[C@H](O)[C@H]3O)[C@H]3COC(=O)[C@H]23)OCO4)cc(OC)c1O [ETO, etoposide, reference compound] | – | – | – | – | – | – | – | – | – | – | – | – | – | – | 1.21 ± 0.15 | – | 0.07 ± 0.12 | – | – |

Reference: publication PMC10439230 (Scientific Reports, 2023)
